Laboratory results as given in PMC4311625, “Structural determinants for binding to angiotensin converting enzyme 2 (ACE2) and angiotensin receptors 1 and 2” (Frontiers in Pharmacology, 2015).
Where two headings read alike, the source gives them in different places. Ends that are not written are not given here.

Experiments:
ACE2 [1] = target: T1, ACE2 (Homo sapiens, UniProt Q9BYF1); assay: ACE2 quenched fluorescence substrate (QFS) inhibition assay; type: biochemical; conditions: for inhibition at 0.1 µM: peptide 0.1 μM, read-out: Inhibition (%) of ACE2, AngII chimeras, 0.1 μM; for inhibition at 1 µM / Inhibition (%) of ACE2, AngII chimeras, 1 μM: peptide 1 μM; for inhibition at 1 µM: read-out: Inhibition (%) of ACE2, AngII chimeras, 1 μM; for Inhibition (%) of ACE2, AngII chimeras, 100 μM / inhibition at 100 µM: peptide 100 μM
Protocol: Angiotensin converting enzyme 2 QFS assays were performed for 1 h in 50 uM QFS, 1 M NaCl, 100 mM Tris-Cl, pH 6.5 at 37∘C on a BMG LabTechnologies (Offenburg, Germany), FLUOStar Optima in a 96 well-plate. Subsequent data analysis determined the inhibition of native AngII, its analogs and C-terminal peptides compared to the ACE2 QFS substrate [MCA-APK(DNP)-OH, [Vickers et al., 2002]]. […] Three controls were included in each ACE2 QFS assay; AngII (100 and 10 μM), IHPF (100 μM) and a known ACE2 inhibitor (1 nM; Millennium Pharmaceuticals, Cambridge, MA, USA). QFS assay results were accepted when ACE2 inhibition by AngII (10 μM) was 80 ± 5%, IHPF was 65 ± –5% and the ([Qian et al., 1999]) ‘Millennium Inhibitor’ was 70 ± –5%. Acceptable coefficients of variation (CV; standard deviation/mean × 100) for sample triplicates were <7%.
A library of 40 tetrapeptides based on the four C-terminal residues of Ang II (Ile-His-Pro-Phe/IHPF) was generated and screened for ACE2 binding at 100 μM in order to identify key residues of the C-terminus of Ang II involved in binding to the ACE2 active site. […] Several substitutions (Val, Tyr, Ala, Gly, Phe, Trp, Pro, His, Ile, and Leu) were made in order to further probe the highly hydrophobic and cyclic specificity of the C-terminus of Ang II. A β-napthalene amino acid (Nth) derivative was used as a highly hydrophobic non-natural cyclic residue substitute, and Arg and Lys were substituted for histidine at the second position from the N-terminus of the tetrapeptide to determine if positive charge or other structural or positional requirements were important.

ACE2 [2] = target: T1, ACE2; assay: LC–MS ACE2 proteolytic cleavage assay; type: in vitro ADME; conditions: for Cleavage (%) by ACE2, 1 μM: peptide 1 μM incubated with ACE2 at 37 °C, typically 4-5 h; for Cleavage (%) by ACE2, 1 μM / Cleavage (%) by ACE2, 10 μM / Cleavage (%) by ACE2, 100 μM: LC–MS; for Cleavage (%) by ACE2, 10 μM: peptide 10 μM incubated with ACE2 at 37 °C; for Cleavage (%) by ACE2, 10 μM / Cleavage (%) by ACE2, 100 μM: typically 4-5 h (5 h); for Cleavage (%) by ACE2, 100 μM: peptide 100 μM incubated with ACE2 at 37 °C
Protocol: The first hour of the incubation was performed in the Fluorostar Optima plate reader in order to confirm previously observed level of inhibition, then for the remaining time the samples were transferred to small microfuge tubes and incubated in a water bath. The extent of ACE2 cleavage was assessed by LC–MS on an Agilent capillary HP1100, MSD VL3000 Ion-Trap system.

AT1R = target: T2, AT1R (Rattus norvegicus, UniProt P25095); assay: Whole cell competition binding with [125I]-Ang II, AT1R-transfected HEK-293 cells; conditions: relative binding, displacement of 125I-Ang II in AT1R-transfected HEK-293 cells; 100 nM (Table 6)
T2 construct: HA; expressed in transfected cells
T2 sequence (P25095 1-359): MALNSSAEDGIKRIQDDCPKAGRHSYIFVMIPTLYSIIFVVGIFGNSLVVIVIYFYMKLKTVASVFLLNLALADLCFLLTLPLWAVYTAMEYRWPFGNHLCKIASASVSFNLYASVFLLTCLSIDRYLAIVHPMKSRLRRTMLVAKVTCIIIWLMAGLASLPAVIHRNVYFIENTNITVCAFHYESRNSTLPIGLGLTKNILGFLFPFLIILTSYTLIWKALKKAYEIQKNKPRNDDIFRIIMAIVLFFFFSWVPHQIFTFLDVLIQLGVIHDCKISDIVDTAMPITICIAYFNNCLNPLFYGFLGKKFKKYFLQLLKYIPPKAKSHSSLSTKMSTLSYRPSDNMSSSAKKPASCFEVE
Protocol: The generation of plasmids expressing HA-tagged versions of the AT1R and AT2R have been previously described [Qian et al. (1999)], [D’Amore et al. (2005)]. HEK-293 cells in 12 well-plates were transfected with either AT1R or AT2R plasmids (0.6 μg/well) using lipofectAMINE (4⋅8 μl/well), as previously described [Thomas et al. (1998)] and stably expressing clones obtained by selection with G418 (1 mg/ml) and limiting dilution.

AT2R = assay: Whole cell competition binding with [125I]-Ang II, AT2R-transfected HEK-293 cells; conditions: relative binding, displacement of 125I-Ang II in AT2R-transfected HEK-293 cells; 100 nM (Table 6)
Protocol: The generation of plasmids expressing HA-tagged versions of the AT1R and AT2R have been previously described [Qian et al. (1999)], [D’Amore et al. (2005)]. HEK-293 cells in 12 well-plates were transfected with either AT1R or AT2R plasmids (0.6 μg/well) using lipofectAMINE (4⋅8 μl/well), as previously described [Thomas et al. (1998)] and stably expressing clones obtained by selection with G418 (1 mg/ml) and limiting dilution. HEK clones expressing either AT1R or AT2R were plated in 12 well-plates for whole cell competition binding assays using the non-selective Ang II ligand, [^125I]-Ang II and selected concentrations of Ang II, PD123319 (an AT2-selective ligand) and the various β-substituted Ang II peptides. Non-linear regression of the data was achieved using GraphPad Prism (GraphPad Software Inc., San Diego, CA, USA) to determine relative displacement of chimeric Ang II analogs as compared to ^125I-Ang II in either AT1R- or AT2R- transfected HEK-293 cells.

[3] = QFS assay, pH 6.5, 37 °C, 1 h, value ± spread
[4] = peptide 10 μM, QFS assay, pH 6.5, 37 °C, 1 h, value ± spread, read-out: Inhibition (%) of ACE2, AngII chimeras, 10 μM
[5] = peptide 10 μM, QFS assay, pH 6.5, 37 °C, 1 h, value ± spread

T1 sequence (Q9BYF1 18-805, species assumed): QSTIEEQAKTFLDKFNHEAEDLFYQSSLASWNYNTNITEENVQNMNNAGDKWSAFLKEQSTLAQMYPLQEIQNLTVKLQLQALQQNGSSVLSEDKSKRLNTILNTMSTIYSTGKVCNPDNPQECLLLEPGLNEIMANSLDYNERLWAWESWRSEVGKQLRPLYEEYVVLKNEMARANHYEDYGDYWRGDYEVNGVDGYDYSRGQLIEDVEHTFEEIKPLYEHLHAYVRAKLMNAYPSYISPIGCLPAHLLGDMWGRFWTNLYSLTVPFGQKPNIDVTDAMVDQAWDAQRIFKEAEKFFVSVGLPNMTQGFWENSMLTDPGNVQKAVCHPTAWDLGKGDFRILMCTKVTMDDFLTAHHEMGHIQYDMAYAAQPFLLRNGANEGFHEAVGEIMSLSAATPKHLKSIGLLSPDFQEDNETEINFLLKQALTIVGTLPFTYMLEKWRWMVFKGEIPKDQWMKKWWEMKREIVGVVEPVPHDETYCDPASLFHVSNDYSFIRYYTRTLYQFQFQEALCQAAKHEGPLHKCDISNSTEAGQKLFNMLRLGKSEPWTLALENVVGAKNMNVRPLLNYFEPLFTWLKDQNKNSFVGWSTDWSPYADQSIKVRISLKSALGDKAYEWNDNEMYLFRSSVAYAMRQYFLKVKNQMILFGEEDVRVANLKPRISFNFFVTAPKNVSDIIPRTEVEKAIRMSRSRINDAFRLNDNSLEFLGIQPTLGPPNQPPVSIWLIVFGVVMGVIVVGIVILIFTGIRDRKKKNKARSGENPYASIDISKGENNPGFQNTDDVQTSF

Molecule | inhibition at 0.1 µM (ACE2 [1]; [3]) | inhibition at 1 µM (ACE2 [1]; [3]) | inhibition at 10 µM (ACE2 [1]; [4]) | Cleavage (%) by ACE2, 1 μM (ACE2 [2]) | Cleavage (%) by ACE2, 10 μM (ACE2 [2]) | Inhibition (%) of ACE2, AngII chimeras, 1 μM (ACE2 [1]; [3]) | Inhibition (%) of ACE2, AngII chimeras, 10 μM (ACE2 [1]; [5]) | Inhibition (%) of ACE2, AngII chimeras, 100 μM (ACE2 [1]; [3]) | Cleavage (%) by ACE2, 100 μM (ACE2 [2]) | AT1R binding (%) (AT1R) | AT2R binding (%) (AT2R) | other results
DRVYIYPF | 17% | 78 ± 2% | 96% | 85% | 18 ± 1.2% | – | – | – | – | – | – | –
DRVYVYβPF | – | – | – | – | 0 ± 0% | 0 ± 11.4% | 42 ± 4.4% | 90 ± 0.6% | complete resistance to proteolytic cleavage | 0% | 75% | Cleavage (%) by ACE2, 100 μM (ACE2 [2]; listed as DRVY VYβPF): 0 ± 0%
DRVYVYPβF | – | – | – | – | – | 2 ± 3.6% | 15 ± 9% | 59 ± 2.1% | complete resistance to proteolytic cleavage | 0% | 25% | –
CC[C@H](C)[C@H](NC(=O)[C@H](Cc1ccc(O)cc1)NC(=O)[C@@H](NC(=O)[C@H](CCCNC(=N)N)NC(=O)[C@@H](N)CC(=O)O)C(C)C)C(=O)N[C@@H](Cc1cnc[nH]1)C(=O)N1CCC[C@H]1C(=O)N[C@@H](Cc1ccccc1)C(=O)O [Angiotensin II, reference compound] | -5% | 21 ± 6.8% | 77 ± 2.9% | 93% | – | – | – | – | – | – | – | inhibition at 100 µM (ACE2 [1]; 50 uM QFS, 1 M NaCl, 100 mM Tris-Cl pH 6.5, 37 °C, 1 h, triplicate, read-out: Inhibition (%) of ACE2, single and multiple residue substitution analogs (Table 2)): 97%; inhibition at 100 µM (ACE2 [1]; QFS assay, pH 6.5, 37 °C, 1 h, value ± spread, read-out: Inhibition (%) of ACE2, AngII chimeras, 100 μM): 99 ± 0.3%; inhibition at 10 µM (ACE2 [1]; read-out: ACE2 inhibition by control, acceptance window of QFS assay): 80 ± 5%; Cleavage (%) by ACE2, 10 μM (ACE2 [2]; listed as D1R2V3Y4I5H6P7F8): 40 ± 2%; Cleavage (%) by ACE2, 10 μM (ACE2 [2]; listed as native Ang II): 40%
DRVYIYβPF | – | – | – | – | 0 ± 0% | –4 ± 9.8% | 10 ± 5.8% | 72 ± 1.5% | complete resistance to proteolytic cleavage | 0% | 80% | Cleavage (%) by ACE2, 100 μM (ACE2 [2]; listed as DRVYI YβPF): 0 ± 0%
DRVYVYPF | 31 ± 3.5% | 84 ± 2.7% | 98 ± 0.3% | 64% | 9 ± 0.3% | – | – | – | – | – | – | fold less cleavage by ACE2 compared to native Ang II (ACE2 [2]; 10 μM, over 5 h): approximately 4 fold
DRVYIYPβF | – | – | – | – | 0 ± 0% | –1 ± 6.8% | completely abolished | 53 ± 1.9% | complete resistance to proteolytic cleavage | 30% | 25% | Inhibition (%) of ACE2, AngII chimeras, 10 μM (ACE2 [1]; peptide 10 μM, QFS assay, pH 6.5, 37 °C, 1 h, value ± spread, listed as DRVYI YPβF): 0 ± 5%; Cleavage (%) by ACE2, 100 μM (ACE2 [2]; listed as DRVYI YPβF): 0 ± 0%
